Measurements published in ChEMBL document CHEMBL2176953, “Synthesis and evaluation of α-thymidine analogues as novel antimalarials” (J Med Chem, 2012).

Legend:
Plasmodium falciparum = test: Antimalarial activity against erythrocytic stages of Plasmodium falciparum 3D7 infected in human O positive RBC after 48 hrs by SYBR-green assay; type: functional, organism-based; settings: 3D7, 48 h
Thymidylate kinase = target: T1, Thymidylate kinase (Plasmodium falciparum (isolate 3D7), UniProt Q8I4S1); test: Inhibition of recombinant Plasmodium falciparum TMPK using TMP as substrate by pyruvate kinase and lactate dehydrogenase enzyme coupled assay
T1 sequence (Q8I4S1 whole entry): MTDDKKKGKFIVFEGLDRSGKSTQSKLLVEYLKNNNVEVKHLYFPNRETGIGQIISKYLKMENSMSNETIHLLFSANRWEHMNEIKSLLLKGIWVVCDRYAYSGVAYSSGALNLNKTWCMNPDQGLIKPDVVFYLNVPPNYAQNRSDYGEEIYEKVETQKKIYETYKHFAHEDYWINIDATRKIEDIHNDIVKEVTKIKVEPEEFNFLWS

MRC5 = test: Cytotoxicity against human MRC5 cells; type: cell-based

Row | SMILES | EC50 (Plasmodium falciparum) [µM] | Ki (Thymidylate kinase) [µM] | CC50 (MRC5) [µM]
1 | Cc1cn([C@H]2C[C@H](O)[C@@H](CNC(=O)Nc3ccc(N4CCN(C)CC4)cc3)O2)c(=O)[nH]c1=O | 26 | – | –
2 | COc1ccccc1NC(=O)NC[C@H]1O[C@@H](n2cc(C)c(=O)[nH]c2=O)C[C@@H]1O | > 100 | 107 | –
3 | Cc1ccc2nc(-c3ccc(NC(=O)NC[C@H]4O[C@@H](n5cc(C)c(=O)[nH]c5=O)C[C@@H]4O)cc3)sc2c1 | > 200 | – | –
4 | Cc1cn([C@H]2C[C@H](O)[C@@H](CNC(=O)c3ccc([N+](=O)[O-])cc3)O2)c(=O)[nH]c1=O | > 100 | 302 | –
5 | Cc1cn([C@H]2C[C@H](O)[C@@H](CNC(=S)Nc3ccc(Br)cc3)O2)c(=O)[nH]c1=O | 172 | 32 | –
6 | Cc1cn([C@H]2C[C@H](O)[C@@H](CNC(=O)NCc3ccccc3)O2)c(=O)[nH]c1=O | > 200 | 64 | –
7 | Cc1cn([C@@H]2C[C@H](O)[C@@H](CNC(=O)Nc3ccc(Cc4ccccc4)cc3)O2)c(=O)[nH]c1=O | 1.5 | – | > 50
8 | COc1ccc(COc2ccc(NC(=O)NC[C@H]3O[C@@H](n4cc(C)c(=O)[nH]c4=O)C[C@@H]3O)cc2)cc1 | 3.8 | – | > 50
9 | Cc1cn([C@@H]2C[C@H](O)[C@@H](CNC(=O)Nc3ccc(OCc4ccc(C(C)(C)C)cc4)cc3)O2)c(=O)[nH]c1=O | 1.8 | – | > 50
10 | Cc1cn([C@H]2C[C@H](O)[C@@H](CNC(=O)Nc3ccc(C(C)(C)C)cc3)O2)c(=O)[nH]c1=O | 64 | 47 | –
11 | Cc1cn([C@@H]2C[C@H](O)[C@@H](CNC(=O)NCc3ccccc3)O2)c(=O)[nH]c1=O | 64 | 198 | –
12 | Cc1cn([C@@H]2C[C@H](O)[C@@H](CNC(=O)Nc3cccnc3)O2)c(=O)[nH]c1=O | > 100 | > 1000 | –
13 | Cc1cn([C@H]2C[C@H](O)[C@@H](CNS(=O)(=O)c3ccc([N+](=O)[O-])cc3)O2)c(=O)[nH]c1=O | > 100 | > 1000 | –
14 | Cc1cn([C@H]2C[C@H](O)[C@@H](CNC(=O)Nc3ccccc3-c3ccccc3)O2)c(=O)[nH]c1=O | 253 | – | –
15 | Cc1cn([C@@H]2C[C@H](O)[C@@H](CNC(=S)Nc3ccc(Br)cc3)O2)c(=O)[nH]c1=O | 20 | 65 | –
16 | COc1ccccc1NC(=O)NC[C@H]1O[C@H](n2cc(C)c(=O)[nH]c2=O)C[C@@H]1O | 44 | 138 | –
17 | Cc1cn([C@H]2C[C@H](O)[C@@H](CNC(=O)Nc3ccc(Cl)c(C(F)(F)F)c3)O2)c(=O)[nH]c1=O | 114 | 27 | –
18 | Cc1cn([C@@H]2C[C@H](O)[C@@H](CNC(=O)Nc3ccccc3)O2)c(=O)[nH]c1=O | 23 | 166 | –
19 | Cc1cn([C@H]2C[C@H](O)[C@@H](CNC(=O)Nc3ccc(Cl)cc3)O2)c(=O)[nH]c1=O | > 200 | 14 | –

Row | SMILES | EC50 (Plasmodium falciparum) [µM] | Ki (Thymidylate kinase) [µM] | CC50 (MRC5) [µM]
20 | Cc1cn([C@@H]2C[C@H](O)[C@@H](CNC(=S)Nc3ccc(N4CCOCC4)cc3)O2)c(=O)[nH]c1=O | 35 | – | –
21 | Cc1cn([C@H]2C[C@H](O)[C@@H](CNC(=O)Nc3cccc(COc4ccccc4)c3)O2)c(=O)[nH]c1=O | 148 | – | –
22 | Cc1cn([C@@H]2C[C@H](O)[C@@H](CNC(=S)Nc3ccc(OCc4ccccc4)cc3)O2)c(=O)[nH]c1=O | 9.5 | – | > 50
23 | Cc1cn([C@@H]2C[C@H](O)[C@@H](CNS(=O)(=O)c3ccc([N+](=O)[O-])cc3)O2)c(=O)[nH]c1=O | > 100 | > 1000 | –
24 | Cc1cn([C@H]2C[C@H](O)[C@@H](CNC(=O)Nc3ccc(OCc4ccccc4)cc3)O2)c(=O)[nH]c1=O | 4 | – | > 50
25 | Cc1cn([C@@H]2C[C@H](O)[C@@H](CNC(=O)Nc3ccccc3Cl)O2)c(=O)[nH]c1=O | 36 | 205 | –
26 | Cc1cn([C@@H]2C[C@H](O)[C@@H](CNC(=O)Nc3ccccc3-c3ccccc3)O2)c(=O)[nH]c1=O | 96 | – | –
27 | Cc1cn([C@@H]2C[C@H](O)[C@@H](CNC(=O)Nc3ccc([N+](=O)[O-])cc3)O2)c(=O)[nH]c1=O | 31 | 11 | –
28 | CCOC(=O)CCNC(=O)NC[C@H]1O[C@H](n2cc(C)c(=O)[nH]c2=O)C[C@@H]1O | > 100 | > 1000 | –
29 | Cc1cn([C@H]2C[C@H](O)[C@@H](CNC(=O)Nc3ccc([N+](=O)[O-])cc3)O2)c(=O)[nH]c1=O | 69 | 11 | –
30 | Cc1cn([C@H]2C[C@H](O)[C@@H](CNC(=O)Nc3cccnc3)O2)c(=O)[nH]c1=O | > 100 | 222 | –
31 | Cc1cn([C@@H]2C[C@H](O)[C@@H](CNC(=O)Nc3ccc(OCc4ccc(Cl)cc4)cc3)O2)c(=O)[nH]c1=O | 0.88 | – | > 50
32 | COc1ccc(NC(=O)NC[C@H]2O[C@@H](n3cc(C)c(=O)[nH]c3=O)C[C@@H]2O)cc1 | 69 | 50 | –
33 | Cc1cn([C@H]2C[C@H](O)[C@@H](CNC(=O)Nc3ccc(Br)cc3)O2)c(=O)[nH]c1=O | 30 | 15 | –
34 | Cc1cn([C@H]2C[C@H](O)[C@@H](CNC(=O)c3ccc4ccccc4c3)O2)c(=O)[nH]c1=O | > 100 | > 1000 | –
35 | Cc1cn([C@H]2C[C@H](O)[C@@H](CNC(=O)Nc3ccc(N4CCCCC4)cc3)O2)c(=O)[nH]c1=O | 4.8 | – | > 50
36 | Cc1cn([C@@H]2C[C@H](O)[C@@H](CNS(=O)(=O)c3ccc4ccccc4c3)O2)c(=O)[nH]c1=O | > 100 | > 1000 | –
37 | Cc1cn([C@H]2C[C@H](O)[C@@H](CNC(=O)Nc3ccccc3Cl)O2)c(=O)[nH]c1=O | > 100 | 52 | –
38 | Cc1ccc2nc(-c3ccc(NC(=O)NC[C@H]4O[C@H](n5cc(C)c(=O)[nH]c5=O)C[C@@H]4O)cc3)sc2c1 | 4.6 | – | > 50

Row | SMILES | EC50 (Plasmodium falciparum) [µM] | Ki (Thymidylate kinase) [µM] | CC50 (MRC5) [µM]
39 | Cc1cn([C@H]2C[C@H](O)[C@@H](CNC(=O)Nc3cccc4ccccc34)O2)c(=O)[nH]c1=O | > 100 | – | –
40 | Cc1cn([C@@H]2C[C@H](O)[C@@H](CNC(=O)Nc3ccc(N4CCN(C)CC4)cc3)O2)c(=O)[nH]c1=O | 29 | – | –
41 | Cc1cn([C@H]2C[C@H](O)[C@@H](CNC(=O)Nc3ccccc3)O2)c(=O)[nH]c1=O | > 100 | 60 | –
42 | Cc1cn([C@@H]2C[C@H](O)[C@@H](CNC(=O)Nc3ccc(OC4CCOCC4)cc3)O2)c(=O)[nH]c1=O | 1.3 | – | > 50
43 | Cc1cn([C@@H]2C[C@H](O)[C@@H](CNCc3ccc([N+](=O)[O-])cc3)O2)c(=O)[nH]c1=O | > 100 | > 1000 | –
44 | COc1cccc(NC(=O)NC[C@H]2O[C@@H](n3cc(C)c(=O)[nH]c3=O)C[C@@H]2O)c1 | > 100 | 69 | –
45 | Cc1cn([C@H]2C[C@H](O)[C@@H](CNCc3ccc([N+](=O)[O-])cc3)O2)c(=O)[nH]c1=O | > 100 | 742 | –
46 | Cc1cn([C@H]2C[C@H](O)[C@@H](CNC(=O)Nc3ccc(OC4CCOCC4)cc3)O2)c(=O)[nH]c1=O | 33 | – | –
47 | Cc1cn([C@@H]2C[C@H](O)[C@@H](CNC(=O)c3ccc4ccccc4c3)O2)c(=O)[nH]c1=O | > 100 | 541 | –
48 | COc1cccc(NC(=O)NC[C@H]2O[C@H](n3cc(C)c(=O)[nH]c3=O)C[C@@H]2O)c1 | 56 | 159 | –
49 | CCOC(=O)CCNC(=O)NC[C@H]1O[C@@H](n2cc(C)c(=O)[nH]c2=O)C[C@@H]1O | > 100 | 201 | –
50 | COc1ccc(COc2ccc(NC(=O)NC[C@H]3O[C@H](n4cc(C)c(=O)[nH]c4=O)C[C@@H]3O)cc2)cc1 | 0.21 | – | –
51 | Cc1cn([C@H]2C[C@H](O)[C@@H](CNC(=S)Nc3ccc(Cl)c(C(F)(F)F)c3)O2)c(=O)[nH]c1=O | 42 | 25 | –
52 | Cc1cn([C@H]2C[C@H](O)[C@@H](CNC(=S)Nc3ccc(Cl)cc3)O2)c(=O)[nH]c1=O | > 200 | 37 | –
53 | Cc1cn([C@H]2C[C@H](O)[C@@H](CNC(=O)Nc3cccc(Cl)c3)O2)c(=O)[nH]c1=O | > 100 | 28 | –
54 | Cc1cn([C@H]2C[C@H](O)[C@@H](CNS(=O)(=O)c3ccc4ccccc4c3)O2)c(=O)[nH]c1=O | > 100 | > 1000 | –
55 | Cc1cn([C@@H]2C[C@H](O)[C@@H](CNC(=O)c3ccc([N+](=O)[O-])cc3)O2)c(=O)[nH]c1=O | > 100 | 541 | –
56 | Cc1cn([C@H]2C[C@H](O)[C@@H](CNC(=O)Nc3ccccc3COc3ccccc3)O2)c(=O)[nH]c1=O | 48 | – | –
